Measured values taken from US4628090A, “Fluorine-containing antifolates incapable of polyglutanayte formation related compounds” (Rensselaer Polytechnic Institute, priority 1985, dated 1986).
“Also recorded” adds a separate entry of the source. Like-named read-outs stand apart in the source and are kept apart here.

Tests used:
[1] = test system: folylpolyglutamate synthetase; experiment: Polyglutamylation by FPGS: incubation with FPGS, ATP and glutamic acid (Tables 2 and 3); type: biochemical; conditions: Table 2 footnotes, ATP, glutamic acid
[2] = test system: dihydrofolate reductase (DHFR); experiment: DHFR inhibition; type: biochemical; conditions: in vitro, relative to MTX
Excerpt: Hopefully, the potential for this new compound as a treatment for leukemia will be exploited further.

rat liver FPGS = experiment: FPGS substrate activity, in vitro, rat liver FPGS; type: biochemical
cultured hepatic cells = experiment: Toxicity in long term pulse administration experiments, cultured hepatic cells; type: cell-based
Excerpt: The major difference is that the cells given MTX contain large amounts (60%-90%) of MTX polyglutamate derivatives which efflux only very slowly, and thus are trapped in the cell. In contrast, cells given MFTX contain less than 5% of the analgous FMTX polyglutamates.

hepatic cells = type: cell-based
[3] = test system: biosynthesis of thymidyate; experiment: Thymidylate biosynthesis (DNA synthesis) in pulse administration experiments; type: cell-based
[4] = test system: FPGS (folylpolyglutamate synthetase); experiment: FPGS inhibition / chain termination by 4-fluoroglutamic acid; type: biochemical
Excerpt: The present invention for the first time presents a fluorinated compound, e.g. D,L-threo-4-fluoroglutamic acid which inhibits FPGS. It is proposed that by replacing the glutamate moiety of MTX with 4-fluoroglutamate, as in the present invention, the new MTX analog becomes capable of inhibiting DHFR and incapable of acting as a substrate for FPGS.

[5] = test system: FPGS (folylpolyglutamate synthetase); conditions: alternate substrate; McGuire and Coward, J. Biol. Chem. 260, 6747 (1985); cited from earlier work
DHFR = conditions: Rosowsky et al; cited from earlier work
[6] = test system: FPGS (folylpolyglutamate synthetase); conditions: Rosowsky et al; cited from earlier work
leukemia = conditions: Farber et al, 1948; cited from earlier work

## Nc1nc2ncc(CNc3ccc(C(=O)N[C@@H](CCC(=O)O)C(=O)O)cc3)nc2c(=O)[nH]1 [Folic Acid]
[1]
  polyglutamylation: undergoes polyglutamylation

## CN(Cc1cnc2nc(N)nc(N)c2n1)c1ccc(C(=O)NC(CC(F)C(=O)O)C(=O)O)cc1 (stereo not drawn) [FMTX, 4-amino-10-methyl-pteroyl-4-fluoroglutamic acid]
[2]
  inhibitory activity against DHFR: retain the potent inhibitory activity of MTX against DHFR; also recorded: comparable to MTX
Rat liver FPGS
  substrate for FPGS: not a substrate
[1]
  polyglutamylation: resists
Cultured hepatic cells; long term pulse administration, cultured hepatic cells, relative to MTX
  toxicity levels: several thousand times lower than MTX
Cultured hepatic cells; preliminary biochemistry, relative to MTX
  toxicity to cells: without being nearly as toxic to cells
Cultured hepatic cells; pulse conditions
  cytotoxicity: marked decrease in cytotoxicity
Hepatic cells
  efflux (transport out) from hepatic cells, rate: essentially identical to unmetabolized MTX
  polyglutamate derivatives contained in cells: less than 5%
  uptake by hepatic cells (rate and extent): nearly identical in terms of rate and extent as unmetabolized MTX
[3]
  biosynthesis of thymidyate, and therefore DNA synthesis: only very weakly affected

## NC(CC(F)C(=O)O)C(=O)O [D,L-threo-4-fluoroglutamic acid]
[4]
  inhibition of FPGS: inhibits FPGS
[5]
  chain termination of the FPGS reaction: chain termination of the FPGS reaction

## CN(Cc1cnc2nc(N)nc(N)c2n1)c1ccc(C(=O)NC(CCS(=O)(=O)O)C(=O)O)cc1 (racemic)
DHFR
  affinity for DHFR: tightly bind DHFR
[6]
  inhibition of FPGS: appears to weakly inhibit FPGS

## CN(Cc1cnc2nc(N)nc(N)c2n1)c1ccc(C(=O)N[C@@H](CCC(=O)O)C(=O)O)cc1 [Methotrexate]
[1]
  polyglutamylation: undergoes
Hepatic cells
  polyglutamate derivatives contained in cells: 60-90%
leukemia
  remission in leukemia: temporary remission in leukemia
